# Source: patent publication US6720343B2, “Oxadiazole derivatives having anticancer effects” (Shionogi & Co., Ltd., priority 2002, dated 2004)
# Read-outs that look alike come from different tables or passages of the source.
# Experiments:
# MMP-9 = target: T1, MMP-9 (Homo sapiens, UniProt P14780); assay: Assay for inhibitory activities on MMPs (fluorogenic peptide substrate), MMP-9; type: biochemical
# T1 construct: purchased Calbiochem-Novabiochem International, Inc
# Method: MMP-9 was purchased from Calbiochem-Novabiochem International, Inc.
# (§1) The enzymatic activity on MMPs was analyzed by the method described in “C. […] The substrate (MOCAc-Pro-Leu-Gly-Leu-A2Pr(DNP)-Ala-Arg-NH2) was purchased from Peptide Institute, Inc., Osaka, Japan.
# (§2) The measurement of the inhibitory activities (IC50) was carried out by the following four methods;
# (§3) A) Reaction with substrate, enzyme (MMPs) and inhibitor
# (§4) B) Reaction with substrate and inhibitor, without enzyme
# (§5) C) Reaction with substrate and enzyme (MMPs), without inhibitor
# (§6) D) Reaction with substrate only
# (§7) IC50 values were calculated by using the following formula and each fluorescence values of above four methods (A to D).
# (§8) % inhibition={1−(A−B)/(C−D)}×100
# MMP-2 = target: T2, MMP-2 (Homo sapiens, UniProt P08253); assay: Assay for inhibitory activities on MMPs (fluorogenic peptide substrate), MMP-2; type: biochemical
# T2 construct: purchased Calbiochem-Novabiochem International, Inc
# T2 sequence (P08253 110-660): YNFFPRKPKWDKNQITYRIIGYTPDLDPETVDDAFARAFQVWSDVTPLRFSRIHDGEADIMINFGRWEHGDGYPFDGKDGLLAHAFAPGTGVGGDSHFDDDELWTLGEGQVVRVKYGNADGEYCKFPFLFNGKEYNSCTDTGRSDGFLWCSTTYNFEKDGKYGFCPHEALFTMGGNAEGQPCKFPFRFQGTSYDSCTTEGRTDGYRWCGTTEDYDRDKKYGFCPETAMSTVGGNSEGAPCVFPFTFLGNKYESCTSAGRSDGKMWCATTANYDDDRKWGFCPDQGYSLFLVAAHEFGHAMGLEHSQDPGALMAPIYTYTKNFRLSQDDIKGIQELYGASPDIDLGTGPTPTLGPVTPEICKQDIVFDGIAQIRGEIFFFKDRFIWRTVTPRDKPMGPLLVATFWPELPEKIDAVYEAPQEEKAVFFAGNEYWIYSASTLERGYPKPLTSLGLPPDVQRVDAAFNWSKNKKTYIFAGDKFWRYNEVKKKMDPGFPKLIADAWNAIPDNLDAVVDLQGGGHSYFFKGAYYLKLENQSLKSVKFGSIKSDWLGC
# Method: MMP-2 was purchased from Calbiochem-Novabiochem International, Inc.
# as §1, §2, §3, §4, §5, §6, §7, §8
# [1] = test system: Lewis mouse lung carcinoma cells; assay: Antitumor efficacy using artificial lung metastasis of Lewis mouse lung carcinoma; type: in vivo, BDF1 mice; conditions: for inhibition in vivo at 20 mg/kg / inhibition in vivo at 200 mg/kg / inhibition in vivo at 2 mg/kg: Mus musculus, po, 336 h, read-out: Inhibition (%)
# Method: Lewis mouse lung carcinoma cells (4×10^5 cells) were inoculated into the tail vein of BDF1 mice. […] The doses of the compounds were 20 and 200 mg/kg or 2 and 20 mg/kg. At 14 day after tumor inoculation, tumor nodules formed in the lung of the treated mice were counted and the antitumor efficacy was evaluated.
# MMP-8 Catalytic domain = target: T3, MMP-8 Catalytic domain (Homo sapiens, UniProt P22894); assay: Assay for inhibitory activities on MMPs (fluorogenic peptide substrate), MMP-8; type: biochemical
# T3 construct: MMP-8 Catalytic domain (^99Phe˜^262Gly); His-tag; Enterokinase digestion site; made in house; host or cells: E. coli
# T3 sequence (P22894 99-262): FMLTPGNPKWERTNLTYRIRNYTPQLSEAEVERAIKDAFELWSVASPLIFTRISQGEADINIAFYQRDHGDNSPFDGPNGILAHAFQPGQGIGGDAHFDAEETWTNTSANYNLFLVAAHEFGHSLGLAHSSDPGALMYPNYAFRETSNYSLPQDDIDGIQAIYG
# Method: The DNA fragment was cloned into an E. coli expression vector, pTrc99A containing the His-tag sequence and Enterokinase digestion site. The MMP-8 Catalytic domain expression was induced by the addition of IPTG (Isopropyl-β-D-thiogalactopyranoside), and the cell pellet containing MMP-8 Catalytic domain was obtained. […] Isolation of MMP-8 from the cell pellet was used by general techniques. After the cell pellet was dissolved in 6M urea, the solution was loaded onto a metal-chelating matrix. Subsequently, dialysis was used to remove urea and refold of MMP=8. And then active MMP-8 was obtained.
# as §1, §2, §3, §4, §5, §6, §7, §8
# [2] = experiment 3-1, 20 mg/kg oral, five times, lung tumor nodules at day 14
# [3] = experiment 3-1, 200 mg/kg oral, five times, lung tumor nodules at day 14
# [4] = experiment 3-2, 20 mg/kg oral, five times, lung tumor nodules at day 14
# [5] = experiment 3-2, 200 mg/kg oral, five times, lung tumor nodules at day 14
# [6] = experiment 3-3, 2 mg/kg oral, five times, lung tumor nodules at day 14
# [7] = experiment 3-3, 20 mg/kg oral, five times, lung tumor nodules at day 14
# T1 sequence (P14780 94-707): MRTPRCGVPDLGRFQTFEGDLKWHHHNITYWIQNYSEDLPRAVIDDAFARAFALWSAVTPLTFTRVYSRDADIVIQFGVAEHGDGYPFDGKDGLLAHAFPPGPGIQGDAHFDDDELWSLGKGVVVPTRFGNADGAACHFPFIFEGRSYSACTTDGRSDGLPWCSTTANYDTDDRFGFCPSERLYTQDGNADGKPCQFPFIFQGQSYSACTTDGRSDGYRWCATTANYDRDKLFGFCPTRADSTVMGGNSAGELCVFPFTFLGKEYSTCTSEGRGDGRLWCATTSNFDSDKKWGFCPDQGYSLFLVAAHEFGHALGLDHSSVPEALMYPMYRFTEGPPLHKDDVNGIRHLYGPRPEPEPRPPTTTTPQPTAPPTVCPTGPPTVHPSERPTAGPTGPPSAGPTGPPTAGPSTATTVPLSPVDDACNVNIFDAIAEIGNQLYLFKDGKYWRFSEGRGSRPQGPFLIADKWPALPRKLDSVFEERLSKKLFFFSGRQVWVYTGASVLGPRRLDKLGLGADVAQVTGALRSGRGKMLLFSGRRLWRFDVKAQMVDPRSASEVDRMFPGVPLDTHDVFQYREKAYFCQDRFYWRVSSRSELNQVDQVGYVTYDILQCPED
SMILES,IC50 (MMP-9) [nM],IC50 (MMP-2) [nM],"inhibition in vivo at 20 mg/kg [1, 2] [%]","inhibition in vivo at 200 mg/kg [1, 3] [%]","Number of colonies (Mean ± SD) [1, 2]","Number of colonies (Mean ± SD) [1, 3]",melting point [°C],IC50 (MMP-8 Catalytic domain) [nM],inhibition in vivo at 20 mg/kg [1] [%],inhibition in vivo at 200 mg/kg [1] [%],"inhibition in vivo at 20 mg/kg [1, 4] [%]","inhibition in vivo at 200 mg/kg [1, 5] [%]","Number of colonies (Mean ± SD) [1, 4]","Number of colonies (Mean ± SD) [1, 5]",inhibition in vivo at 2 mg/kg [1] [%],"Number of colonies (Mean ± SD) [1, 6]","Number of colonies (Mean ± SD) [1, 7]","inhibition in vivo at 2 mg/kg [1, 6] [%]","inhibition in vivo at 20 mg/kg [1, 7] [%]"
Cc1ccc(-c2noc(-c3ccc(S(=O)(=O)N[C@H](C)C(=O)O)cc3)n2)cc1 [Compound A-1],470,30,53,69,20.2 ± 13.3,13.3 ± 11.8,200 to 203,> 1000,,,,,,,,,,,
O=C(O)[C@@H](Cc1ccccc1)NS(=O)(=O)c1ccc(-c2nc(-c3ccccc3)no2)cc1 [Compound A-2],> 1000,53,,,,,221 to 222,> 1000,,,,,,,,,,,
Cc1ccc(-c2noc(-c3ccc(S(=O)(=O)N[C@H](Cc4ccccc4)C(=O)O)cc3)n2)cc1 [Compound A-3],384,15,,,,,,775,,,,,,,,,,,
C[C@@H](NS(=O)(=O)c1ccc(-c2nc(-c3ccc(Cl)cc3)no2)cc1)C(=O)O [Compound A-4],190,26,,,19.2 ± 9.4,23.3 ± 12.8,,> 1000,55,46,,,,,,,,,
CC(C)[C@@H](NS(=O)(=O)c1ccc(-c2nc(-c3cccs3)no2)cc1)C(=O)O [Compound A-5],> 1000,30,,,,,,610,,,24,37,41.8 ± 22.5,34.8 ± 12.1,,,,,
C[C@@H](NS(=O)(=O)c1ccc(-c2nc(-c3ccc(F)cc3)no2)cc1)C(=O)O [Compound A-6],> 1000,50,,,,,,> 1000,,,26,57,40.8 ± 13.5,24.0 ± 9.7,,,,,
CCc1ccc(-c2noc(-c3ccc(S(=O)(=O)N[C@H](Cc4ccccc4)C(=O)O)cc3)n2)cc1 [Compound A-7],78,8,56,49,18.8 ± 6.9,21.7 ± 9.6,,> 1000,,,,,,,,,,,
Cc1ccc(-c2noc(-c3ccc(S(=O)(=O)N[C@@H](Cc4ccccc4)C(=O)O)cc3)n2)cc1 [Compound A-8],479,51,,,18.8 ± 11.4,15.7 ± 5.5,,> 1000,56,63,,,,,,,,,
O=C(O)[C@@H](Cc1c[nH]c2ccccc12)NS(=O)(=O)c1ccc(-c2nc(-c3ccccc3)no2)cc1 [Compound A-9],566,18,,,,,,> 1000,,,30,51,38.7 ± 5.8,27.0 ± 9.7,,,,,
C[C@@H](NS(=O)(=O)c1ccc(-c2nc(-c3ccccc3)no2)cc1)C(=O)O [Compound A-10],> 1000,65,43,41,24.5 ± 7.8,25.2 ± 17.0,,> 1000,,,,,,,,,,,
Cc1ccc(-c2noc(-c3ccc(S(=O)(=O)N[C@@H](C(=O)O)C(C)C)cc3)n2)s1 [Compound A-93],47,6,,,,,,88,50,,,,,,41,36.3 ± 9.2,30.8 ± 10.8,,
"O=C(O)[C@@H](Cc1c[nH]c2ccccc12)NSOOc1ccc(-c2nnn(-c3ccccc3)n2)cc1 [Compound B-1, reference compound]",,,38,46,26.5 ± 19.5,23.0 ± 7.6,,,,,37,31,34.8 ± 14.5,38.3 ± 20.7,,53.5 ± 18.5,37.5 ± 13.0,14,39
